Marks after values point to notes of the source that are not given here.
Columns and labels:
[1] = system: Signs and Symptoms of Osteoarthritis; conditions: cited from earlier work
pain = conditions: 100 mg dose, for the duration of the six week study; cited from earlier work
[2] = Combined plots / meta analysis of published pharmacokinetic data; type: in vivo, patients
Experimental: Accordingly, the dose proportionality may not be as is described by the package insert for Celebrex®. As a result of the failure to determine and pursue target PK ranges, in some instances patients receiving 100 mg patients may not get enough of the drug and the 200 mg patients may receive too much of the drug.
In other words, the most efficacious celecoxib dosage is highly individualized among the elderly. Unexpectedly, elderly here is defined as patients greater than >40 or >50, not the usually definition of elderly (age greater>65).
Based on the wide range of AUC values, some instances patients receiving 100 mg patients may not get enough of the drug and the 200 mg patients may receive too much of the drug (FIG. 2).

[3] = Naproxen group, at 12 weeks, n = 198

What does the source list for `COc1ccc2cc([C@H](C)C(=O)O)ccc2c1` [Naproxen, naproxen]?
Withdrawal due to treatment failure (%) ([1]; Naproxen group, 12 weeks, n = 198): 26‡ %; Patient global assessment condition improved (%) [1, 3]: 29‡ %; Patient global assessment condition worsened (%) [1, 3]: 2%; Physician's global assessment condition improved (%) [1, 3]: 33‡ %; Physician's global assessment condition worsened (%) [1, 3]: 1%; Mean +/− SEM Osteoarthritis Severity Index ([1]; Naproxen group, at 12 weeks, scale 0 to 24, negative change indicating improvement): −3.1 +/− 0.30‡; Mean +/− SEM WOMAC Osteoarthritis Index composite score ([1]; Naproxen group, at 12 weeks, scale 0 to 96, negative change indicating improvement): −11.9 +/− 1.29‡

Which side effects reported (pain) does the source give for `Cc1ccc(-c2cc(C(F)(F)F)nn2-c2ccc(S(N)(=O)=O)cc2)cc1` [celecoxib, Celecoxib] here?
The side effects reported was “fewer side effects”.

And the side effects reported ([1]; 100 mg dose compared with 200 mg dose)?
The side effects reported was “fewer side effects”.

What about the “variability of PK parameters (AUC) by age group” value ([2]; applicant's meta analysis, one dose AUC, elderly (>40 or >50) vs younger patients, FIG. 3) of the same compound?
The value was “higher variability than younger patients”.

What about the variability of pharmacokinetics ([2]; combined plots of published pharmacokinetic data, FIG. 2, 100 mg and 200 mg doses) of the same compound?
The variability of pharmacokinetics was “unexpectedly high”.

Source: patent US20160199392A1, “METHOD FOR INDIVIDUALIZED DRUG THERAPY” (Autotelic LLC, priority 2015, published 2016)
